Measured values from patent US20250312365A1, “METHODS FOR INHIBITION OF SQUAMOUS CARCINOMA CELLS USING CERAMIDE MODULATORS” (The Trustees of Indiana University, priority 2024, published 2025).
Entries after “also recorded” stand apart in the source; their conditions may differ.

What was measured:
Type in all cases: cell-based, human
Vimentin = assay: Western blot of Vimentin in OECM1 cells; conditions: 24 h of treatment
Method: (§1) To determine the effect of PGDHC on cell markers involved in metastasis, the protein levels of p-STAT3, EMT markers, E-cadherin, N-cadherin, and Vimentin in OECM1 cells following in vitro exposure to PGDHC were determined by Western blot assay.

ACER2 = ACER2 mRNA expression in SCC4 cells; conditions: 0.1 or 1 μg/ml of PGDHC
Method: Next, the effect of PGDHC on ceramidase gene expression was determined. OECM1 and SCC4 cells were exposed to 0.1 or 1 μg/ml of PGDHC. The mRNA levels of ceramidases were then measured following PGDHC exposure. PGDHC inhibited the expression of ASAH1 and ACER2 mRNAs in OECM1 (FIG. 8). […] See, e.g., Vijayan et al., J Adv Res. 2023 Dec. 21:S2090-1232(23)00403-4, Doan et al., Oncotarget. 2017 Nov. 7;8(68):112662-112674., Lai et al., Sci Rep. 2021 May 27;11(1):11221, Liu et al., Cancer Sci. 2020 July;111(7):2259-2274., and Liu et al., Front Genet. 2023 Mar. 1:14:1148437.

SCC9 cells = assay: Untargeted metabolomic pathway analysis (LC/MS) in SCC9 cells; conditions: 1 μg/ml for 6 h
Source text: The plots in FIGS. 16A and 16B display the enriched pathways identified in the analysis, with their corresponding significance levels represented on the x-axis. The significance threshold (p<0.05) is denoted by the dashed line. […] Additionally, the color of the dots represents the enrichment, which indicates the extent to which the metabolites in the pathway were clustered amongst the compounds with the most positive fold-changes (positive enrichments), the most negative fold-changes (negative enrichments), or uniformly distributed across high and low fold-change compounds (enrichment values near 0.0). […] Polar and lipid metabolites were analyzed with hydrophilic interaction chromatography (HILIC/MS) and liquid chromatography (LC/MS), respectively. Mass spectrometry analysis was completed with a mass range of 67-1500 Da with 1 scan/sec and a mass resolution of 120,000 in both positive and negative ionization mode. The MS/MS mass-spectrometry data were acquired in a data-dependent iterative fashion with a 1.3 m/z isolation window. Based upon this metabolomic analysis, phosphoglycerol dihydroceramide (PGDHC) isolated from Porphyromonas gingivalis inhibits metabolomic pathways essential for cell survival in oral squamous cell carcinoma cells (OSCC). […]
SCC9 were exposed to a15:0-i15:0PE (1 μg/ml) for 6 h in vitro. […] The significance threshold (p<0.05) is denoted by the grey dashed line. […] Additionally, the color of the dots represents the enrichment, which indicates the extent to which the metabolites in the pathway were clustered amongst the compounds with the most positive fold-changes (positive enrichments), the most negative fold-changes (negative enrichments), or uniformly distributed across high and low fold-change compounds (enrichment values near 0.0).

E-cadherin = assay: Western blot of E-cadherin in OECM1 cells; conditions: 24 h of treatment
Method: as §1

[1] = system: tongue squamous carcinoma cells (SCC4); assay: WST-1 proliferation assay in SCC4 cells; conditions: 0.1 μg/ml and 1 μg/ml
Source text: (§2) In specific examples, colorimetric assays can be used to assess cellular viability and proliferation of cell cultures, such as MTT, WST-1, and resazurin assays. See, e.g., Präbst et al., Methods Mol Biol. 2017:1601:1-17.
(§3) Various cell lines were exposed to PGDHC, including human gingival squamous carcinoma cells (OECM1), tongue squamous carcinoma cells (SCC4, SCC9), and healthy human gingival epithelial control cells (OBA9) in vitro.

[2] = system: tongue squamous carcinoma cells (SCC9); assay: Cell viability/proliferation assay (WST-1) in SCC9 cells; conditions: 0.1 μg/ml and 1 μg/ml; WST-1
Source text: as §2, §3
LCL521 is a dose-dependent acid ceramidase inhibitor. Comparison of the concentration-dependent effects of an acid ceramidase inhibitor, LCL521 (MedChemExpress®), and the bacterial-isolated a15:0-15:0PE phospholipid on the viability of healthy human epithelial, OBA9, and oral squamous cancer cell lines, OECM1 and SCC9, in vitro was evaluated. […] (FIG. 15A). […] (FIG. 15B).

p-STAT3 = assay: Western blot of p-STAT3 in OECM1 cells; conditions: time course 15 minutes to 24 hours, compared to sham control
Method: as §1

NFkB = NFkB mRNA expression in SCC4 cells; conditions: relative to control cells
Method: (§4) Expression of these genes was also assessed in human tongue squamous cell carcinoma SCC4 cells.

MMP2 = MMP2 mRNA expression in SCC4 cells; conditions: relative to control cells
Method: as §4

Substance: phosphoglycerol dihydroceramide [PGDHC]
- protein level of Vimentin in OECM1 cells (Vimentin): little to no detectable effect
- expression of ACER2 mRNA in SCC4 cells (ACER2): downregulated
- Warburg effect in SCC9 cells (SCC9 cells): altered
- arginine and proline metabolism in SCC9 cells (SCC9 cells): diminished accumulation; also recorded: inhibits
- de novo triacylglycerol biosynthesis in SCC9 cells (SCC9 cells): diminished accumulation; also recorded: inhibits
- folate metabolism in SCC9 cells (SCC9 cells): diminished accumulation; also recorded: inhibits
- glycine and serine metabolism in SCC9 cells (SCC9 cells): diminished accumulation; also recorded: inhibits
- level of ATP in SCC9 cells (relative abundance) (SCC9 cells): altered
- level of glucose in SCC9 cells (relative abundance) (SCC9 cells): altered
- mitochondrial electron transport in SCC9 cells (SCC9 cells): diminished accumulation; also recorded: inhibits
- protein level of E-cadherin in OECM1 cells (E-cadherin): little to no detectable effect
- proliferation of SCC4 cells [1]: did not have an observable effect
- proliferation of SCC9 cells [2]: did not have an observable effect
- levels of p-STAT3 protein in OECM1 cells (p-STAT3): no effect
- NFkB mRNA in SCC4 cells (NFkB): significantly diminished
- MMP2 mRNA in SCC4 cells (MMP2): significantly diminished
